# According to US9221787B2, “Sulphonamine compounds and methods of making and using same” (Zafgen, Inc., priority 2010, dated 2015):
# Biological target: T1, recombinant human MetAP2 (Homo sapiens, UniProt P50579)
# T1 construct: Flag; made in house; host or cells: Sf9 insect cells
# Test: Inhibition of recombinant human MetAP2 activity (Amplex red fluorescence assay)
# Type: biochemical
# Details: manganese enzyme, 0.75 mM Methionine-Alanine-Serine (MAS) substrate, 30 minutes at 25° C., pH 7.5, 1% DMSO
# Procedure: Compounds are tested for their capacity to inhibit recombinant human MetAP2 activity using the following assay.
# Human recombinant Flag-MetAP2 expressed in Sf9 cells followed by affinity purification and EDTA treatment to remove endogenous active site cation is dialysed against MnCl2 to produce the manganese enzyme used in the assay. The assay is carried out for 30 minutes at 25° C. in 50 mM HEPES buffer containing 100 mM NaCl, pH 7.5 the presence of 0.75 mM Methionine-Alanine-Serine (MAS) substrate and […] amino acid oxidase using a dilution of purified MetAP2 giving approximately 50,000 RFU control activity. Cleavage of the substrate by MetAP2 and oxidation of free methionine by amino acid oxidase is detected and quantified using fluorescence generated by Amplex red (10-acetyl-3,7-dihydroxyphenoxazine) in combination with horseradish peroxidase which detects H2O2 released during the oxidation step. The fluorescent signal is detected using a multiwell fluorimeter. Compounds are diluted in DMSO prior to addition to assay buffer, the final DMSO concentration in the assay being 1%.
# The IC50 is defined as the concentration at which a given compound achieves 50% inhibition of control. IC50 values are calculated using the XLfit software package (version 2.0.5).
# T1 sequence (P50579 whole entry): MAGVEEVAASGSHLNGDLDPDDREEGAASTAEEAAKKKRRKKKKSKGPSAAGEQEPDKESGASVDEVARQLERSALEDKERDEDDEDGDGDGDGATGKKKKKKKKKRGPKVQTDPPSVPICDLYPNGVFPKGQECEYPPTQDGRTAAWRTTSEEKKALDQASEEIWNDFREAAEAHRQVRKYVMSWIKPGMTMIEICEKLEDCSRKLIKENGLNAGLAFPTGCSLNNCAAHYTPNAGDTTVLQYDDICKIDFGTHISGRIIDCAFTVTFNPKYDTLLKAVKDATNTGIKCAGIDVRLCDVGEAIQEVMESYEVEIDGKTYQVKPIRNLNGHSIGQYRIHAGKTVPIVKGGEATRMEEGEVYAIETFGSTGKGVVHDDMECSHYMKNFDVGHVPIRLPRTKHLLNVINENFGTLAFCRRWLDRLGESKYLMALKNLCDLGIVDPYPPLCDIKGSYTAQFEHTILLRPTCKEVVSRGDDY
row,IC50 [µM],Compound
1,< 0.2,O=C(O)c1c(NS(=O)(=O)c2ccccc2)sc2c1CCCO2
2,0.2 to 2,"O=C(O)c1c(NS(=O)(=O)c2ccccc2Cl)sc2c1CCCC2 [2-(2-Chlorobenzenesulphonylamino)-4,5,6,7-tetrahydrobenzo[b]thiophene-3-carboxylic acid]"
3,< 0.2,"CCc1ccccc1S(=O)(=O)Nc1sc2c(c1C(=O)O)CCCC2 [2-(2-Ethylbenzenesulphonylamino)-4,5,6,7-tetrahydrobenzo[b]thiophene-3-carboxylic acid]"
4,0.2 to 2,"O=C(O)c1c(NS(=O)(=O)c2ccccc2F)sc2c1CCCC2 [2-(2-Fluorobenzenesulphonylamino)-4,5,6,7-tetrahydrobenzo[b]thiophene-3-carboxylic acid]"
5,< 0.2,"COc1ccccc1S(=O)(=O)Nc1sc2c(c1C(=O)O)CCCC2 [2-(2-Methoxybenzenesulphonylamino)-4,5,6,7-tetrahydrobenzo[b]thiophene-3-carboxylic acid]"
6,< 0.2,"Cc1ccccc1S(=O)(=O)Nc1sc2c(c1C(=O)O)CCCC2 [2-(2-Methylbenzenesulphonylamino)-4,5,6,7-tetrahydrobenzo[b]thiophen-3-carboxylic acid]"
7,0.2 to 2,"O=C(O)c1c(NS(=O)(=O)c2ccccc2C(F)(F)F)sc2c1CCCC2 [2-(2-Trifluoromethylbenzenesulphonylamino)-4,5,6,7-tetrahydrobenzo[b]thiophene-3-carboxylic acid]"
8,0.2 to 2,"O=C(O)c1c(NS(=O)(=O)c2cccc(Cl)c2)sc2c1CCCC2 [2-(3-Chlorobenzenesulphonylamino)-4,5,6,7-tetrahydrobenzo[[b]thiophene-3-carboxylic acid]"
9,0.2 to 2,"COc1cccc(S(=O)(=O)Nc2sc3c(c2C(=O)O)CCCC3)c1 [2-(3-Methoxybenzenensulphonylamino)-4,5,6,7-tetrahydrobenzo[b]thiophene-3-carboxylic acid]"
10,0.2 to 2,"O=C(O)c1c(NS(=O)(=O)c2ccc(Cl)cc2)sc2c1CCCC2 [2-(4-Chlorobenzenesulphonylamino)-4,5,6,7-tetrahydrobenzo[b]thiophene-3-carboxylic acid]"
11,0.2 to 2,"Cc1cc(F)ccc1S(=O)(=O)Nc1sc2c(c1C(=O)O)CCCC2 [2-(4-Fluoro-2-methylbenzenesulphonylamino)-4,5,6,7-tetrahydrobenzo[b]thiophene-3-carboxylic acid]"
12,< 0.2,"O=C(O)c1c(NS(=O)(=O)c2ccc(F)cc2)sc2c1CCCC2 [2-(4-Fluorobenzenesulphonylamino)-4,5,6,7-tetrahydrobenzo[b]thiophene-3-carboxylic acid]"
13,0.2 to 2,"O=C(O)c1c(NS(=O)(=O)C2CCCCC2)sc2c1CCCC2 [2-(Cyclohexanesulphonylamino)-4,5,6,7-tetrahydrobenzo[b]thiophene-3-carboxylic acid]"
14,0.2 to 2,"CC1CCc2sc(NS(=O)(=O)c3ccccc3)c(C(=O)O)c2C1 (stereo not shown) [2-Benzenensulphonylamino-5-methyl-4,5,6,7-tetrahydrobenzo[b]thiophene-3-carboxylic acid]"
15,0.2 to 2,"Cn1c2c(c(C(=O)O)c1NS(=O)(=O)c1ccccc1)CCCC2 [2-Benzenesulphonylamino-1-methyl-4,5,6,7-tetrahydro-1H-indole-3-carboxylic acid]"
16,< 0.2,"O=C(O)c1c(NS(=O)(=O)c2ccccc2)sc2c1CCCC2 [2-Benzenesulphonylamino-4,5,6,7-tetrahydrobenzo[b]thiophene-3-carboxylic acid]"

row,IC50 [µM],Compound
1,0.2 to 2,"O=C(O)c1c(NS(=O)(=O)c2ccccc2)sc2c1CCOC2 [2-Benzenesulphonylamino-4,7-dihydro-5H-thieno[2,3-c]pyran-3-carboxylic acid]"
2,> 2,Cc1c(-c2ccccc2)sc(NS(=O)(=O)c2ccccc2)c1C(=O)O [2-Benzenesulphonylamino-4-methyl-5-phenylthiophene-3-carboxylic acid]
3,0.2 to 2,"CC1(C)CCc2sc(NS(=O)(=O)c3ccccc3)c(C(=O)O)c2C1 [2-Benzenesulphonylamino-5,5-dimethyl-4,5,6,7-tetrahydrobenzo[b]thiophene-3-carboxylic acid]"
4,0.2 to 2,"O=C(O)c1c(NS(=O)(=O)c2ccccc2)sc2c1CCC2 [2-Benzenesulphonylamino-5,6-dihydro-4H-cyclopenta[b]thiophene-3-carboxylic acid]"
5,0.2 to 2,Cc1c(-c2ccoc2)sc(NS(=O)(=O)c2ccccc2)c1C(=O)O [2-Benzenesulphonylamino-5-(furan-3-yl)-4-methylthiophene-3-carboxylic acid]
6,> 2,O=C(O)c1cc(C2CCOCC2)sc1NS(=O)(=O)c1ccccc1 [2-Benzenesulphonylamino-5-(tetrahydropyran-4-yl)thiophene-3-carboxylic acid]
7,0.2 to 2,CCc1sc(NS(=O)(=O)c2ccccc2)c(C(=O)O)c1C(C)C [2-Benzenesulphonylamino-5-ethyl-4-isopropylthiophene-3-carboxylic acid]
8,0.2 to 2,CCc1sc(NS(=O)(=O)c2ccccc2)c(C(=O)O)c1C [2-Benzenesulphonylamino-5-ethyl-4-methylthiophene-3-carboxylic acid]
9,> 2,O=C(O)c1cc(-c2ccccc2)sc1NS(=O)(=O)c1ccccc1 [2-Benzenesulphonylamino-5-phenylthiophene-3-carboxylic acid]
10,0.2 to 2,"CC1(C)CCc2c(sc(NS(=O)(=O)c3ccccc3)c2C(=O)O)C1 [2-Benzenesulphonylamino-6,6-dimethyl-4,5,6,7-tetrahydrobenzo[b]thiophene-3-carboxylic acid]"
11,0.2 to 2,"O=C(O)c1c(NS(=O)(=O)c2ccccc2)sc2c1COCC2 [2-Benzenesulphonylamino-6,7-dihydro-4H-thieno[3,2-c]pyran-3-carboxylic acid]"
12,< 0.2,"CC1CCc2c(sc(NS(=O)(=O)c3ccccc3)c2C(=O)O)C1 (stereo not shown) [2-Benzenesulphonylamino-6-methyl-4,5,6,7-tetrahydrobenzo[b]thiophene-3-carboxylic acid]"
13,> 2,O=C(O)c1c(NS(=O)(=O)c2ccccc2)sc2ccccc12 [2-Benzenesulphonylaminobenzo[b]thiophene-3-carboxylic acid]
14,0.2 to 2,"O=C(O)c1c(NS(=O)(=O)Cc2ccccc2)sc2c1CCCC2 [2-Phenylmethanesulphonylamino-4,5,6,7-tetrahydrobenzo[b]thiophene-3-carboxylic acid]"
15,0.2 to 2,"CCN(CC)C/C=C\c1ccccc1S(=O)(=O)Nc1sc2c(c1C(=O)O)CCCC2 [2-[2-((Z)-3-Diethylaminoprop-1-enyl)benzenesulphonylamino]-4,5,6,7-tetrahydrobenzo[b]thiophene-3-carboxylic acid]"
